According to patent US5242900A (priority 1991, dated 1993):

Legend:
[1] = system: pancreatectomized dogs; assay: Subcutaneous studies in pancreatectomized (diabetic) dogs: plasma glucose; assay type: in vivo
Description: (§1) Nine dogs of initially normal body weight were studied in accordance with Institutional Guidelines for animal experiments. Exteriorized, indwelling catheters were placed for intra-portal insulin administration and peripheral venous blood sampling. All were studied initially as normals. Subsequently all were pancreatectomized; five were autografted and the remaining four were treated pharmacologically both with the modified insulins described above in Example 1 and the corresponding unmodified conventional extracted insulins. Small venous blood samples were drawn via the indwelling blood sampling catheter at 30-60 minute intervals for plasma glucose determination in the subcutaneous experiments and at -10,0,3,6,10,20,30,60 minutes in the intravenous experiments. […] All animals were conscious and ambulatory during the studies.
At the conclusion of experimental protocols, it was verified that all nine of the animals were diabetic by extirpating the grafts (from the transplant recipients) or withdrawing insulin therapy (from the pancreatectomized animals).
(§2) Plasma glucose was determined using a glucose analyzer (Beckman Instruments, Fullerton, CA). IRI was assayed using porcine insulin standard and ^125 I porcine insulin tracer (Novo Research Institute, Gentofte, Denmark), antiserum and a dextran-coated charcoal separation technique (Albisser et al, Diabetes 35:97-100, 1986). In the studies using porcine phosphorylated insulin, the above assay was performed as for porcine insulin, but using equimolar standards of phosphorylated insulin. Parallel standard curves were obtained. […] All values were expressed as mean ±SEM unless otherwise indicated.
Subsequent to pancreatectomy the animals were studied repeatedly, now in the post-absorptive, hyperglycemic state of 14-20 mM, because the conventional insulin depot administered the previous day had become depleted.

[2] = system: normal dog; assay type: in vivo
Description: as §1, §2

Substance: phosphorylated insulin: porcine insulin chemically phosphorylated with POCl3/phosphoric acid in DMF; 3 or 5 negatively charged adducts; about 5-10% unmodified
- early hypoglycemia ([1]; dog, in vivo, sc): never occurred
- lipo-genesis (fat-like deposits) in the areas of repeated subcutaneous injections ([1]; dog, in vivo, sc): palpable fat-like deposits
- time euglycemia maintained ([1]; fasted pancreatectomized dog, starting 14-20 mM, subcutaneous, 30-150 nMol): 2 to 6 h
- glucose lowering effect at larger dose ([1]; pancreatectomized dog, subcutaneous, 4-fold larger doses): occurred more rapidly and lasted longer
- plasma glucose lowered to ([1]; pancreatectomized dog, subcutaneous, approximately 4 nMol/kg): 4.5 to 6.0 mM
- plasma glucose with repeated injections ([1]; pancreatectomized dog, subcutaneous, smaller dosage repeated at 6-8h intervals): maintain plasma glucose in the range normal for postabsorptive dogs
- body weight regained after loss following pancreatectomy ([1]; pancreatectomized dogs): 1 to 3 kg
- first pass extraction by the liver compared with insulin ([2]; dog, in vivo): not extracted to the same extent
- hypoglycemic effect ([2]; normal dog, intra-portal, 2-fold larger dose): without major hypoglycemic effect
- drop in blood glucose ([2]; normal dog, intra-portal, at 15 minutes): 0.2 mM
- decrease in plasma glucose ([2]; normal dog, intra-portal, double dosage): about 0.5 mM
